From patent publication US4045433A, “1,3,4,5-Tetrahydro-2H-1,4-benzodiazepin-2-ones” (priority 1974, dated 1977) come the findings set out here.

Data set [1] concerns CFLP mice. Nature of the data set: Antimetrazole activity (protection from tonic extensor spasm). In kind it is in vivo. As for the experimental part: 1. The first series of examinations was carried out according to the method of Everett and Richards (Everett G. M., Richards R. K.: J. Pharm. Exp. Ther. 81, 402 (1944)). 125 mg./kg. of metrazole were administered subcutaneously to the test animals. 1 hour after the administration the animals protected from tonic extensor spasm and the surviving animals were counted.

Data set [2] relates to CFLP mice. Nature of the data set: Maximum electroshock (anti-electroshock activity). To be noted: Mus musculus, po, 1 h, p.o., 1 hour before test; 100 Hz, 30 V, 0.2 sec.; read-out: Anti-electroshock activity ED50. It is filed as in vivo. From the text: 2. Maximum electroshock stimulus (100 Hz, 30 V, 0.2 sec.) was applied according to the method of Swinyard et al. (Swinyard E. A., Brown W. C., Goodman, L. S.: J. Pharmacol. 106, 319 (1952)). The animals showing no tonix extension on the hind limb upon stimulus were considered as protected.

For data set [3], the system named is CFLP mice. The data set is described as follows: Antagonism of strychnine spasm. It is filed as in vivo. The procedure: Tonic extensor spasm was produced by administering an intraperitoneal dosage of 2 mg./kg. of strychnine to the animals (Kerley T. L., Richards A. G., Begley, R. W., Abren, B. E. and Weaver, L. C: J. Pharmacol. Exp. Ther. 132, 360 (1961)). The animals showing no spasm were considered as protected.

The nature of data set [4]: Rotarod test (muscle incoordination and ataxia). To be noted: mouse, in vivo, po, 1 hour before test; 12/min., 120 sec.; read-out: Rotarod test ED50. In kind it is in vivo, CFLP mice. As for the experimental part: (§1) a. Rotarod test: The test was carried out according to the method of Kinnard and Carr (Brit. J. Pharmacol. Exp. Ther. 121, 354 (1957)). […] The ED50 values were calculated from the percentage of the animals falling down within 120 sec.
Background: In the rotarod test animals must keep their balance on a rotating rod.

The subject of data set [5] is CFLP mice. Nature of the data set: Rotarod test (muscle incoordination and ataxia). In kind it is in vivo. To be noted: ratio (1) of Table 2, p.o. As for the experimental part:
as §1

Data set [6] in a line: Traction test (muscle incoordination and ataxia). More on the design: species or system CFLP mice. To be noted: mouse, in vivo, po, 1 hour before test; read-out: Traction test ED50. As for the experimental part: b. Traction test: The test was carried out according to the method of Theobald et al. (Arch. int. Pharmacodyn. 148, 560 (1964)). The two anterior limbs of the test animals were placed onto a horizontal rod so as to let the animals clutch the rod. […] The ED50 values were calculated from the percentage of the animals showing negative response.

For data set [7], the system named is CFLP mice. Nature of the data set: Narcosis potentiating effect (sodium barbiturate). It is filed as in vivo.
Data set [8] has as its system CFLP mice. Nature of the data set: Disappearance of righting reflex. In kind it is in vivo. To be noted: Mus musculus, po.
Data set [9] is described as follows: Acute toxicity. It is filed as in vivo, CFLP mice. To be noted: mouse, in vivo, po; death rate observed for one week; read-out: Acute toxicity (LD50).
Data set [10] concerns CFLP mice. Nature of the data set: Acute toxicity. In kind it is in vivo. To be noted: in words.
The test system of data set [11] is CFLP mice. The data set is described as follows: Sedative and muscle relaxant effects (overall assessment). In kind it is in vivo. To be noted: in words.

Entries after “also recorded” stand apart in the source; their conditions may differ.

Turning to `CN1C(=O)CN(C(N)=O)C(c2ccccc2)c2cc(Cl)ccc21` (racemic) [Compound "A", 1-methyl-4-carbamoyl-5-phenyl-7-chloro-1,3,4,5-tetrahydro-2H-1,4-benzodiazepine-2-one], the ED50 is 0.66 mg/kg in data set [1] (Mus musculus, po, 1 h, p.o., 1 hour before test, metrazole 125 mg./kg. s.c., 95% confidence limit in next line, read-out: Antimetrazole activity ED50); 19.3 mg/kg in data set [2]; 26 mg/kg in data set [3] (Mus musculus, po, 1 h, read-out: Antistrychnine activity ED50); 8.8 mg/kg in data set [7] (Mus musculus, po, 1 hour before sodium barbiturate 100 mg./kg. i.p.); 1400 mg/kg in data set [8]. In data set [1] (in words, vs Diazepam), the “tetrachor spasm inhibiting effect / anticonvulsive effect compared with Diazepam” value is given as “practically identical to that of Diazepam”. In addition, in data set [1] (single intravenous dosage of 5 mg./kg., 7 hours after administration), the “animals protected against metrazole spasm” value came to 50%. Further, in data set [3] (ratio (2) of Table 2, p.o.), the “Antistrychnine ED50 : Antimetrazole” value was found to be 39.4. For the same compound, the TD50 at 1 h in data set [4] was 6.7 mg/kg; in data set [6], 26.9 mg/kg. In addition, in [5], the “Rotarod ED50 : Antimetrazole ED50” value turned out to be 10.2. Moreover, the “Narcosis potentiation ED50 : Antimetrazole ED50” value in data set [7] (ratio (3) of Table 2, p.o.) is given as 13.3. The LD50 at 168 h in data set [9] is 1680 mg/kg. Moreover, in data set [10], the “therapeutic index compared with Diazepam” value is on record as “more favourable”. Besides, the “sedative and muscle relaxant effects compared with Diazepam” value in [11] is “provokes muscle relaxation and sedation only in higher dosages; also recorded: much lower”. Moreover, in data set [11] (vs Chlorodiazepoxide and Diazepam), the “relation of the effects to those of the reference substances” value is “more closely related to those of Chlorodiazepoxide than of Diazepam”. For the same compound, in [11] (vs reference substances Diazepam and Chlorodiazepoxide), the “dosages provoking muscle incoordination, muscle relaxation, and narcosis potentiation in relation to the dosage provoking anticonvulsive effect” value is “clearly more advantageous than the reference substances”.

The ED50 is the dose at which the effect has come halfway, by size or by number of responders. A word on the LD50: it is the dose at which mortality reaches 50%.
